The source of these data is US20060142304A1, “Method for treating or preventing pruritic and neurogenic skin disorders” (priority 2004, published 2006).

Each structure is given as a SMILES string. Where a name gives a salt, the structure may show the parent alone.

The test system of test [1] is CD-1 mice. The test can be described thus: Resiniferatoxin-induced neurogenic inflammation (ear edema) in the mouse ear. Format: in vivo. Particulars: for % Inhibition of the Ear Edema: topical to left ear (20 μL) immediately after resiniferatoxin (0.05%) challenge, 7-mm ear biopsy weight 30 minutes after, lidocaine 0.5% w/v, sertaconazole nitrate 1% w/v in 70% ethanol/30% propylene glycol. The protocol:
Eight Albino male CD-1 mice per group, 7-9 weeks old, were used. Induction of neurogenic inflammation in the mouse ear was based on known methods (Inoue H, et al., Br J Pharmacol. 110:1614-1620, 1993). A 20-μl volume of Resiniferatoxin (0.05%) prepared in acetone was applied to the left ears (8 mice per treatment group). The right ear was treated as a control and not treated. Lidocaine hydrochloride (Sigma Aldrich, St. Louis, Mo.) was prepared as a 0.5% w/v solution in 70% ethanol/30% propylene glycol vehicle. Sertaconazole nitrate (Grupo Ferrer International, Barcelona, Spain) was prepared as a 1.0% w/v solution in a 70% ethanol/30% propylene glycol vehicle and applied to the left ear (20 μL) immediately after resiniferatoxin challenge. The mice were sacrificed by CO2 inhalation 30 minutes after applying the solutions. The left and right ears were removed and a 7-mm biopsy was removed from each ear and weighed. The difference in biopsy weights between the right and left ear was calculated. The percent inhibition was calculated by comparing treatments to resiniferatoxin alone. Anti-neurogenic inflammation effects of compounds are evident as an inhibition of the increase in ear weight.

Test [2] relates to CD-1 mice. The test can be described thus: Substance P-induced itch-associated scratching behavior in mice. It is filed as in vivo, mouse. From the text: In this model, an itch-associated response is induced by intradermal injection of the neuropetide, Substance-P, in mice, and scratching behavior is observed and quantitated. […] Clinically, scratching is used as an objective measure of itch since itch is a sensation which promotes the desire to scratch the stimulated area (Yosipovitch G., Definitions of Itch, in Itch Basic Mechanisms and Therapy, ed. Yosipovitch G., et al, 2003) Eight Albino male CD-1 mice per group, 7-9 weeks old, were used. Induction of scratching behavior in the mouse was based on known methods (Andoh T, et al., J Pharmacol Exp Ther. 286:1140-1145, 1998) and produces features similar to itch in humans. An itch-associated response was induced by intradermal injection of Substance P in CD-1 mice, and scratching behavior is observed and quantitated. Before the experiment, mice were individually housed in a plastic cage for at least 1 hour for acclimation. Mice are pre-treated for 30 minutes with topical application of Sertaconazole Nitrate (1%) prepared in 100% ethanol, to an area of the back, which had been shaved one day prior to the experiment. […] The number of scratches elicited during a 30 minute period after injection of Substance-P was determined by playback of the videotape.

With `CCN(CC)CC(=O)Nc1c(C)cccc1C` [Lidocaine, Lidocaine hydrochloride], the “% Inhibition of the Ear Edema” value in the test with CD-1 mice [1] stood at 28.7%.
In the case of `Clc1ccc(C(Cn2ccnc2)OCc2csc3c(Cl)cccc23)c(Cl)c1` (centres unmarked) [Sertaconazole Nitrate, Sertaconazole nitrate], the “reducing neurogenic inflammation (result in words)” value in the test on CD-1 mice [1] (resiniferatoxin mouse ear model, compared to the control or untreated ear) is “highly effective”. In the test with CD-1 mice [1], the “% Inhibition of the Ear Edema” value is recorded as 48.9%. The “reduction of the itch compared to placebo” value in the test on CD-1 mice [2] (Substance P scratching model, topical 1% sertaconazole nitrate) is 38.7%. In addition, the “Scratches per 30 min (Mean ± S. D.)” value in the test on CD-1 mice [2] (topical 1% w/v in 100% ethanol on shaved back, 30 minutes pre-treatment, 300 ug Substance P intradermal, 30 minute period after injection) is given as 39.8 ± 2.7.
